Among the data in patent US20260176284A1, “Compounds with Anti-KRAS Mutated Tumor Activity” (Trasveda Ltd., priority 2022, published 2026) are IC50 values, retold here.

One assay relates to KRAS G12D mutated AGS human gastric adenocarcinoma cells. The experiment in a line: Proliferation inhibition of KRAS G12D mutant AGS cells, another experiment with similar protocol (includes MRTX1133). It is filed as cell-based.
Conditions: not given
As to the method:
In another experiment, using a protocol similar to the one described above, the inhibitory activity of some representative compounds of the present invention against KRAS G12D mutated AGS human gastric adenocarcinoma cells was determined.
The synthesis of compound MRTX1133 was performed according to the method described in J. Med. Chem. 2022, 65, 4, 3123-3133.
A word on the IC50: it is the concentration that inhibits the measured activity by half. A lower IC50 goes with higher potency. In the case of `CN1CC[C@H](C(F)F)[C@](C)(COc2nc(N3C[C@H]4CC[C@@H](C3)N4)c3cc(Cl)c(-c4cccc5sc(N)c(C#N)c45)c(F)c3n2)C1` [Example 312-1, (4-((1R,5S)-3,8-diazabicyclo[3.2.1]octan-3-yl)-6-chloro-2-(((3S,4S)-4-(difluoromethyl)-1,3-dimethylpiperidin-3-yl)methoxy)-8-fluoroquinazolin-7-yl)-2-aminobenzo[b]thiophene-3-carbonitrile], it took 0.011 µM to reach half-maximal inhibition (IC50).

Still in this assay, the particulars now being: Homo sapiens.
Take `[2H]C([2H])([2H])N1CC[C@H](C(F)F)[C@](C)(C([2H])([2H])Oc2nc(N3CC4CCC(C3)N4)c3cc(Cl)c(-c4cccc5sc(N)c(C#N)c45)c(F)c3n2)C1` (single isomer, unassigned) [Example 315-2]: the IC50 was 0.013 µM.
On the same count and under the same terms, then `CN1CC/C(=C\F)[C@](C)(COc2nc(N3CC4CCC(C3)N4)c3cc(C(F)(F)F)c(-c4cccc5sc(N)c(C#N)c45)c(F)c3n2)C1` (single isomer, unassigned) [Example 318-1], with 0.009 µM; and `C#Cc1c(F)ccc2cc(O)cc(-c3c(F)cc4c(N5CC6CCC(C5)N6)nc(OC[C@]5(C)CN(C)CC[C@@H]5CF)nc4c3F)c12` (atropisomer, axis not shown; (Ra)) [Example 45-3], with 0.005 µM; and `C#Cc1c(F)ccc2cc(O)cc(-c3ncc4c(N5CC6CCC(C5)N6)nc(OC[C@]5(CC)CN(C)CC[C@@H]5C(F)F)nc4c3F)c12` (racemic) [Example 396, (±)4-(4-((1R,5S)-3,8-diazabicyclo[3.2.1]octan-3-yl)-2-(((3S,4S)-4-(difluoromethyl)-3-ethyl-1-methylpiperidin-3-yl)methoxy)-8-fluoropyrido[4,3-A]pyrimidin-7-yl)-5-ethynyl-6-fluoronaphthalen-2-ol], with 0.011 µM.
On the same count and under the same terms, then `CCc1c(F)ccc2cc(O)cc(-c3c(F)cc4c(N5CC6CCC(C5)N6)nc(OC[C@]5(C)CN(C)CC[C@@H]5CF)nc4c3F)c12` [Example 99-1], with 0.018 µM; and `C#Cc1c(F)ccc2cc(O)cc(-c3c(F)cc4c(N5C[C@H]6CC[C@@H](C5)N6)nc(OC[C@]5(C)CN(C)CCC56CC6)nc4c3F)c12` [Example 88, 4-(4-((1R,5S)-3,8-diazabicyclo[3.2.1]octan-3-yl)-2-(((S)-4,6-dimethyl-6-azaspiro[2.5]octan-4-yl)methoxy)-6,8-difluoroquinazolin-7-yl)-5-ethynyl-6-fluoronaphthalen-2-ol], with 0.017 µM; and `C#Cc1c(F)ccc2cc(O)cc(-c3nc(OC)c4c(N5C[C@H]6CC[C@@H](C5)N6)nc(OC[C@]5(C)CN(C)CC[C@@H]5CF)nc4c3F)c12` [Example 260, 4-(4-((1R,5S)-3,8-diazabicyclo[3.2.1]octan-3-yl)-8-fluoro-2-(((3S,4S)-4-(fluoromethyl)-1,3-dimethylpiperidin-3-yl)methoxy)-5-methoxypyrido[4,3-d]pyrimidin-7-yl)-5-ethynyl-6-fluoronaphthalen-2-ol], with 0.003 µM.
On the same count and under the same terms, then `CN1CCC(F)(F)[C@](C)(COc2nc(N3CC4CCC(C3)N4)c3cc(F)c(-c4cc(O)cc(Cl)c4C4CC4)c(F)c3n2)C1` [Example 29-1A, 3-(4-((1R,5S)-3,8-diazabicyclo[3.2.1]octane-3-yl)-2-(((S)-4,4-difluoro-1,3-dimethylpiperidin-3-yl)methoxy)-6,8-difluoroquinolin-7-yl)-5-chloro-4-cyclopropylphenol·diformate], with 0.63 µM; and `C#Cc1c(F)ccc2cc(O)cc(-c3ncc4c(N5CC6CCC(C5)N6)nc(OC[C@]5(C)CN(C)CC[C@@H]5F)nc4c3F)c12` [Example 67-1], with 0.077 µM.
Turning to `C#Cc1c(F)ccc2cc(O)cc(-c3nc(OC)c4c(N5C[C@H]6CC[C@@H](C5)N6)nc(OC[C@]5(C)CN(C)CCC5=C)nc4c3F)c12` [Example 258, 4-(4-((1R,5S)-3,8-diazabicyclo[3.2.1]octan-3-yl)-2-(((S)-1,3-dimethyl-4-methylenepiperidin-3-yl)methoxy)-8-fluoro-5-methoxypyrido[4,3-d]pyrimidin-7-yl)-5-ethynyl-6-fluoronaphthalen-2-ol], the IC50 worked out at 0.008 µM.
The same measure, in the same setting: then `CN1CC[C@H](C(F)F)[C@](C)(COc2nc(N3C[C@H]4CC[C@@H](C3)N4)c3cc(Cl)c(-c4cccc5sc(N)c(C#N)c45)c(F)c3n2)C1` [Example 312, 4-(4-((1R,5S)-3,8-diazabicyclo[3.2.1]octan-3-yl)-6-chloro-2-(((3S,4S)-4-(difluoromethyl)-1,3-dimethylpiperidin-3-yl)methoxy)-8-fluoroquinazolin-7-yl)-2-aminobenzo[b]thiophen-3-nitrile], with 0.025 µM; and `C#Cc1c(F)ccc2cc(O)cc(-c3c(F)cc4c(N5CC6CCC(C5)N6)nc(OC[C@]5(C)CN(CC)CC[C@@H]5C)nc4c3F)c12` (atropisomer, axis not shown; (Ra)) [Example 52-1, (Ra)-4-(4-((1R,5S)-3,8-diazabicyclo[3.2.1]octan-3-yl)-2-(((35,4S)-1-ethyl-3,4-dimethyl-piperidin-3-yl)methoxy)-6,8-difluoroquinazolin-7-yl)-5-ethynyl-6-fluoro-naphthalen-2-ol], with 0.01 µM; and `Cc1cc(N)c(C#N)c(-c2c(F)cc3c(N4C[C@H]5CC[C@@H](C4)N5)nc(OC[C@]4(C)CN(C)CC[C@@H]4CF)nc3c2F)c1C(F)(F)F` (single isomer, unassigned) [Example 85-2], with 0.038 µM.
The same measure, in the same setting: then `CN1CC/C(=C\F)[C@](C)(COc2nc(N3CC4CCC(C3)N4)c3cc(Cl)c(-c4cccc5sc(N)c(C#N)c45)c(F)c3n2)C1` (single isomer, unassigned) [Example 313-2], with 0.017 µM; and `CN1CC[C@H](CF)[C@](C)(COc2nc(N3CC4CCC(C3)N4)c3cc(F)c(-c4c(C#N)c(N)cc(Cl)c4C(F)(F)F)c(F)c3n2)C1` (single isomer, unassigned) [Example 122-1, (Ra or Sa)-2-(4-((1R,5S)-3,8-diazabicyclo[3.2.1]octan-3-yl)-6,8-difluoro-2-(((3S,4S)-4-(fluoromethyl)-1,3-dimethylpiperidin-3-yl)methoxy)quinazolin-7-yl)-6-amino-4-chloro-3-(trifluoromethyl) benzonitrile·trifluoroacetate], with 0.034 µM.
On the same count and under the same terms, then `C#Cc1c(F)ccc2cc(O)cc(-c3c(F)cc4c(N5CC6CCC(C5)N6)nc(OC[C@]5(C)CN(CC)CC[C@@H]5F)nc4c3F)c12` (atropisomer, axis not shown; (Ra)) [Example 50-1, (Ra)-4-(4-((1R,5S)-3,8-diazabicyclo[3.2.1]octan-3-yl)-2-(((35,4S)-1-ethyl-4-fluoro-3-methylpiper-idin-3-yl)methoxy)-6,8-difluoroquinazolin-7-yl)-5-ethynyl-6-fluoronaph-thalen-2-ol], with 0.015 µM; and `[2H]C([2H])([2H])[C@@]1(COc2nc(N3CC4CCC(C3)N4)c3cnc(-c4cc(O)cc5ccc(F)c(C#C)c45)c(F)c3n2)CN(C)CC[C@@H]1C(F)F` (single isomer, unassigned) [Example 426, (Sa) or (Ra)-4-(4-((1R,5S)-3,8-diazabicyclo[3.2.1]octan-3-yl)-2-(((3S,4S)-4-(difluoromethyl)-1-methyl-3-(methyl-d3)piperidin-3-yl)methoxy)-8-fluoropyrido[4,3-d]pyrimidin-7-yl)-5-ethynyl-6-fluoronaphthalen-2-ol], with 0.007 µM.
